{
  "source": "patent US20220054588A1",
  "about": "“USE OF SAP FOR THE TREATMENT OF EUROTIOMYCETES FUNGI INFECTIONS” (HUMANITAS MIRASOLE S.P.A., priority 2018, published 2022)",
  "tested_on": "A. fumigatus",
  "test": "Therapy of invasive aspergillosis in cyclophosphamide-immunosuppressed mice (survival, lung CFU)",
  "assay_type": "in vivo",
  "details": "for MST / survival: 4 mg/Kg i.p. at 2 and 24 h; for survival: cyclophosphamide-treated mice",
  "protocol": "FIG. 12 depicts the therapeutic efficacy of SAP in treatment of invasive aspergillosis. a) b) c) survival of transiently immunosuppressed wt mice after injection with the indicated doses of AF conidia. The curve of untreated mice (n=3) with cyclophosphamide is also shown (a). Human SAP (4 mg/Kg) was injected at 2 h and 24 h after infection. a) AF 5.10^7, n=17; AF 5.10^7+SAP, n=15; b) AF 1.10^7, n=7; AF 1.10^7+SAP, n=8; c) AF 5.10^6, n=8; AF 5.10^6+SAP, n=10.***, P<0.005 SAP-treated vs. saline (Mantel-Cox test). One-way ANOVA, P<0.0001. d) lung CFU in mice treated with cyclophosphamide and infected with 1.10^7 AF conidia.*, P<0.05 (Mann-Whitney test). e) quantitative analysis of AF viability performed using a resazurin-based assay. Plasma (30%) from wt and Apcs^−/− mice were incubated (1 min) with 1.5×10^5 AF conidia pre-opsonized or not with SAP. Results are mean±SD of red fluorescence (excitation/emission 535/580-610 nm) intensity of the resazurin once reduced to resorufin within viable cells. Effect of Posaconazole (POC; 1 μM) exposure is also shown. Results are mean±SEM relative to the condition without serum (grey symbols) of two experiments performed with n=10 mice/group. […] AF viability assay performed in sera depleted from complement components. Figure summarizes one experiment out of 5 also conducted with serum 10%. Mean±SD.*, P<0.05; **, P<0.01 (unpaired t-test). g) and h) FACS analysis of MAC deposition on AF conidia (1×10^7) in presence of sera depleted from complement components (e) and the effect of SAP (f). Mean±SEM of 2 experiments performed out of 4. e, f,*, P<0.05;**, P<0.01;***, P<0.005;****, P<0.001; (Mann-Whitney test).\nFIG. 13 depicts the therapeutic efficacy of SAP in treatment of invasive aspergillosis alone or in combination with posaconazole. Survival of transiently cyclophosphamide-immunosuppressed mice after injection with 5×10^7 conidia. Human SAP (4 mg/Kg) and Posaconazole (POS; 1.6 mg/Kg) were injected at 16 h and 40 h after infection. AF 5.10^7+ saline, n=9; AF 5.10^7+SAP, n=8; AF 5.10^7+POS, n=9; AF 5.10^7+SAP+POS, n=8. P<0.01, saline vs. hSAP; P<0.005, saline vs. POS; P<0.0005, saline vs. hSAP+POS; P<0.05, POS vs. hSAP+POS; (Mantel-Cox test).\nThe growth and culture conditions of A. fumigatus and A. Flavus conidia were as described (Garlanda et al., 2002). For intratracheal (i.t.) injection, mice were anesthetized by i.p. injection of ketamine (100 mg/Kg; i.p.) and xylazine (10 mg/Kg i.p.). After surgical exposure, a volume of 50 μl PBS^2+, pH 7.4, containing 1×10^8 or 5×10^7 resting conidia (>95% viable, as determined by serial dilution and plating of the inoculum on Sabouraud dextrose agar) were delivered into trachea under direct vision using a catheter connected to the outlet of a micro-syringe (Terumo, Belgium). Survival to infection was daily monitored for 10d later. Dying mice were euthanized after evaluation of the following clinical parameters: body temperature dropping, intermittent respiration, solitude presence, sphere posture, fur erection, non-responsive alertness, and inability to ascent when induced.\nIn therapy experiments, immunosuppression was induced by i.p. injection of 150 mg/Kg cyclophosphamide (150μl per mouse of 20 mg/ml solution) 2d before infection. Native human SAP (Merck-Millipore) was dialysed in PBS (pH 7.4) in order to eliminate sodium azide and i.p. injected at the dose of 4 mg/Kg at 2 and 24 h after infection or in combination with Posaconazole (POS; 1.6 mg/Kg) at 16 h and 40 h after infection.\nLung homogenates and analysis. Lungs were removed 16 h after infection and homogenized in 1 ml PBS, pH 7.4, containing 0.01% (vol/vol) Tween-20® (Merck-Millipore) and protease inhibitors. Samples were serially diluted 1:10 in PBS and plated on Sabouraud dextrose agar for blinded CFU counting. […]",
  "data": [
    {"substance": "human native SAP: Native SAP from human serum purchased by Merck-Millipore; Serum Amyloid P component, SEQ ID NO: 1", "values": [
      {"measurement": "MST", "setting": "1×10^7 conidia", "value": "> 10"},
      {"measurement": "survival", "setting": "1×10^7 conidia", "value": 62.5, "unit": "%"},
      {"measurement": "MST", "setting": "5×10^6 conidia", "value": "> 10"},
      {"measurement": "survival", "setting": "5×10^6 conidia", "value": 80, "unit": "%"},
      {"measurement": "MST", "setting": "5×10^7 conidia", "value": 4},
      {"measurement": "survival", "setting": "5×10^7 conidia", "value": 20, "unit": "%"},
      {"measurement": "lung fungal burden, median", "setting": "16 h, 1×10^7 conidia, SAP-treated mice", "value": "2.0×10^6 CFU"},
      {"measurement": "reduction in fungal burden in lung", "setting": "16 h, 1×10^7 conidia, SAP-treated vs. untreated", "value": 12, "unit": "fold"}
    ]}
  ]
}
